Patent publication US6348571B1, “Corticotropin release inhibiting factor and methods of using same” (Northwestern University, priority 1994, dated 2002)

Assays:
AtT-20 cells = test: Transfection of AtT-20 cells with prepro-TRH expression plasmids: ACTH secretion (RIA); type: cell-based, mouse; conditions: concluded from deletion studies and known prepro-TRH processing
Excerpt: The expression vector pCMV-TRH comprises cDNA encoding rat TRH under the control of the human cytomegalovirus (HCMV) immediate early promoter (Lee et al., 1988, J. Biol. Chem. 263:16604-16609). To generate this vector, a 1,322 bp fragment comprising sequences encoding TRH was excised from the plasmid pSP64, by digestion with HindIII and EcoRI. This fragment was then inserted into pcDNA-3 (Invitrogen, San Diego, Calif.) to generate pCMV-TRH comprising the HCMV immediate early promoter, the bovine growth hormone polyadenylation signal and cDNA encoding TRH inserted therebetween. This plasmid also contains sequences encoding resistance to neomycin and can therefore be used to select stably transfected cells.
Referring to FIG. 1, two deletions were made in the expression vector pCMV-TRH. The first deletion, ΔBstEII, contains a deletion between nucleotides 506 and 787 in TRH cDNA. […] To generate ΔBstEII, pCMV-TRH was digested with BstEII, and a 6.4 kb fragment was isolated therefrom. The 5′ sticky ends were filled in with Klenow to create blunt ends, and the 6.4 kb fragment was then religated to form ΔBstEII. This religation results in restoration of the original wild type reading frame. […]
ACTH-like immunoreactivity was measured using an antiserum which reacts with amino acids 1-24 and 1-39 on ACTH on an equimolar basis. […]

[1] = system: SCW-induced inflammatory response; conditions: Rittenhouse et al., 1995; cited from earlier work
[2] = system: SCW-induced inflammatory response; test: Thyroid status and SCW-induced inflammatory response in female rats; type: in vivo, rat
Excerpt: RA is an autoimmune disease characterized by chronic degradation of the joints resulting from inflammation of synovial membranes. SCW-induced inflammation in the autoimmune prone female Lewis rat is an accepted animal model for the study of RA. […] It is likely that increased thyroid activity decreases the susceptibility to inflammatory immune disease by increasing glucocorticoid levels. The discovery of CRIF encoded within the same precursor as TRH establishes a direct link between the HPA and thyroid axes. Thyroid hormones may play a fundamental role in regulating the HPA axis by modulation of levels of prepro-TRH mRNA.
To determine the role played by thyroid hormones and concomitant changes in the HPA axis in the development of SCW-induced inflammatory response, expression of genes which reflect the status of thyroid function (TRH), pituitary-adrenal activity (POMC) and inflammation (IL-1β and MIP-1α, a macrophage specific inflammatory protein) was measured. Adult female rats were fed a regular diet (control), or a regular diet plus 0.012% T4 (hyperthyroid) or 0.05% 6-propyl-thiouracil (PTU) supplied in the in drinking water (hypothyroid), for seven weeks. A preparation of SCW (20 μg/g of body weight) was administered intraperitoneally to the rats three days before decapitation. Anterior pituitary POMC, hypothalamic TRH and peritoneal macrophage IL-1β and MIP-1α mRNA levels were assessed by Northern blot hybridization analysis using specific cDNA probes. The levels of mRNA were normalized to the housekeeping gene, GAPD, and were quantified by image analysis densitometry. Plasma levels of TSH and CORT were determined by RIA.

GH3 cells = test: T3 treatment of GH3 cells transfected with human prepro-TRH: TRH mRNA expression; type: cell-based, rat; conditions: 1-100 nM

With “prepro-TRH 172-199: includes the uncleaved fourth TRH portion covalently bound to the amino terminal portion of peptide 178-199 (QHPGRRFIDPELQRSWEEKEGEGVLMPE; UniProt P01150 172-199, looked up, fragment)” the CRIF activity (AtT-20 cells) was “has CRIF activity”.

In the case of `N[C@@H](Cc1cc(I)c(Oc2cc(I)c(O)c(I)c2)c(I)c1)C(=O)O` [T4, thyroxin], the “inflammatory effects of SCW-induced autoimmune responses” value [1] is listed as “decreases the adverse inflammatory effects”, the “increase in macrophage MIP-1α mRNA levels on SCW administration” value ([2]; SCW 20 μg/g ip, SCW-administered control rats 17-fold) is listed as 1.7 fold and the “plasma CORT levels” value ([2]; altered thyroid status, FIG. 12E) is listed as “significant increase”. The “decrease of hypothalamic TRH mRNA levels” value ([2]; hyperthyroid group, 0.012% in diet, seven weeks) was 20%.

In the case of `N[C@@H](Cc1cc(I)c(Oc2ccc(O)c(I)c2)c(I)c1)C(=O)O` [T3], the “expression of TRH mRNA” value (GH3 cells) is reported as “suppressing expression of TRH mRNA”.
